# Assay results published in the supplement of paper PMC8671470.
# What was measured:
# Test in all cases: cell viability (% survival relative to DMSO control); higher = less cytotoxic
# Conditions in all cases: 72 h
# [1] = tested on: myeloid leukemia patient primary cells Pat.6
# Summary of the method: (§1)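 Seventy compounds were pre-printed on 384-well plates at five tenfold concentrations between 1 and 10,000 nM, in duplicate. Thawed mononuclear cells purified by Ficoll from AML or CML patients were added at 10,000 cells/well in RPMI 1640 with 10% FBS for 72 h. Viability by CellTiter-Glo was normalised to DMSO and 10 μM proteasome-inhibitor wells. Where stated, area under the curve was taken from log-logistic fits made with the drc and PharmacoGx R packages, each fit having four parameters.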
# [2] = tested on: myeloid leukemia patient primary cells Pat.8
# Summary of the method: as §1
# [3] = tested on: myeloid leukemia patient primary cells Pat.15
# Summary of the method: as §1
# [4] = tested on: myeloid leukemia patient primary cells Pat.4
# Summary of the method: as §1
# [5] = tested on: myeloid leukemia patient primary cells Pat.10
# Summary of the method: as §1
# [6] = tested on: myeloid leukemia patient primary cells Pat.7
# Summary of the method: as §1
# [7] = tested on: myeloid leukemia patient primary cells Pat.14
# Summary of the method: as §1
# [8] = tested on: myeloid leukemia patient primary cells Pat.12
# Summary of the method: as §1
# [9] = tested on: myeloid leukemia patient primary cells Pat.3
# Summary of the method: as §1
compound,measurement,setting,value
Nc1ccn([C@@H]2O[C@H](CO)[C@@H](O)C2(F)F)c(=O)n1 [Gemcitabine],cell viability,[1]; 1 nM,77.8%
same,cell viability,[1]; 10 nM,84%
same,cell viability,[1]; 100 nM,98.2%
same,cell viability,[1]; 1000 nM,91.2%
same,cell viability,[1]; 10000 nM,81.8%
same,cell viability,[2]; 1 nM,76.5%
same,cell viability,[2]; 10 nM,71.6%
same,cell viability,[2]; 100 nM,91.5%
same,cell viability,[2]; 1000 nM,85.4%
same,cell viability,[2]; 10000 nM,33.7%
same,cell viability,[3]; 1 nM,96.3%
same,cell viability,[3]; 10 nM,80.8%
same,cell viability,[3]; 100 nM,82.5%
same,cell viability,[3]; 1000 nM,78%
same,cell viability,[3]; 10000 nM,41.8%
same,cell viability,[4]; 1 nM,75.4%
same,cell viability,[4]; 10 nM,93.4%
same,cell viability,[4]; 100 nM,82.8%
same,cell viability,[4]; 1000 nM,62.2%
same,cell viability,[4]; 10000 nM,32.2%
same,cell viability,[5]; 1 nM,67.4%
same,cell viability,[5]; 10 nM,32.6%
same,cell viability,[5]; 100 nM,64.3%
same,cell viability,[5]; 1000 nM,45.5%
same,cell viability,[5]; 10000 nM,7.03%
same,cell viability,[6]; 1 nM,52.6%
same,cell viability,[6]; 10 nM,3.48%
same,cell viability,[6]; 100 nM,95.9%
same,cell viability,[6]; 1000 nM,65%
same,cell viability,[6]; 10000 nM,16.3%
same,cell viability,[7]; 1 nM,52.8%
same,cell viability,[7]; 10 nM,44.5%
same,cell viability,[7]; 100 nM,> 100%
same,cell viability,[7]; 1000 nM,67.4%
same,cell viability,[7]; 10000 nM,25.8%
same,cell viability,[8]; 1 nM,96.3%
same,cell viability,[8]; 10 nM,95.9%
same,cell viability,[8]; 100 nM,98.4%
same,cell viability,[8]; 1000 nM,92.4%
same,cell viability,[8]; 10000 nM,82.8%
same,cell viability,[9]; 1 nM,61.9%
same,cell viability,[9]; 10 nM,22.1%
same,cell viability,[9]; 100 nM,25%
same,cell viability,[9]; 1000 nM,7.9%
same,cell viability,[9]; 10000 nM,4.31%
Clc1cc(Cl)c(OCC#CI)cc1Cl [Haloprogin],cell viability,[1]; 1 nM,> 100%
same,cell viability,[1]; 10 nM,> 100%
same,cell viability,[1]; 100 nM,93.3%
same,cell viability,[1]; 1000 nM,54.7%
same,cell viability,[1]; 10000 nM,< 0%
same,cell viability,[2]; 1 nM,66.4%
same,cell viability,[2]; 10 nM,> 100%
same,cell viability,[2]; 100 nM,81.4%
same,cell viability,[2]; 1000 nM,67.1%
same,cell viability,[2]; 10000 nM,1.78%
same,cell viability,[3]; 1 nM,85.7%
same,cell viability,[3]; 10 nM,98.8%
same,cell viability,[3]; 100 nM,85.4%
same,cell viability,[3]; 1000 nM,66.8%
same,cell viability,[3]; 10000 nM,6.74%
same,cell viability,[4]; 1 nM,88.7%
same,cell viability,[4]; 10 nM,87.3%
same,cell viability,[4]; 100 nM,85.3%
same,cell viability,[4]; 1000 nM,13%
same,cell viability,[4]; 10000 nM,28.3%
same,cell viability,[5]; 1 nM,43.6%
same,cell viability,[5]; 10 nM,75.4%
same,cell viability,[5]; 100 nM,46.9%
same,cell viability,[5]; 1000 nM,23.9%
same,cell viability,[5]; 10000 nM,93.2%
same,cell viability,[6]; 1 nM,72.1%
same,cell viability,[6]; 10 nM,> 100%
same,cell viability,[6]; 100 nM,> 100%
same,cell viability,[6]; 1000 nM,3.48%
same,cell viability,[6]; 10000 nM,< 0%
same,cell viability,[7]; 1 nM,88.5%
same,cell viability,[7]; 10 nM,96.7%
same,cell viability,[7]; 100 nM,68.3%
same,cell viability,[7]; 1000 nM,7.52%
same,cell viability,[7]; 10000 nM,< 0%
same,cell viability,[8]; 1 nM,92.9%
same,cell viability,[8]; 10 nM,96.3%
same,cell viability,[8]; 100 nM,94.2%
same,cell viability,[8]; 1000 nM,67.1%
same,cell viability,[8]; 10000 nM,0.0486%
same,cell viability,[9]; 1 nM,> 100%
same,cell viability,[9]; 10 nM,99.9%
same,cell viability,[9]; 100 nM,92.4%
same,cell viability,[9]; 1000 nM,1.81%
same,cell viability,[9]; 10000 nM,< 0%
O=c1[nH]c(=O)n([C@H]2C[C@H](O)[C@@H](CO)O2)cc1I [Idoxuridine],cell viability,[1]; 1 nM,97.7%
same,cell viability,[1]; 10 nM,97.7%
same,cell viability,[1]; 100 nM,99.8%
same,cell viability,[1]; 1000 nM,83.2%
same,cell viability,[1]; 10000 nM,> 100%
same,cell viability,[2]; 1 nM,96.3%
same,cell viability,[2]; 10 nM,> 100%
same,cell viability,[2]; 100 nM,76.2%
same,cell viability,[2]; 1000 nM,68.1%
same,cell viability,[2]; 10000 nM,93.1%
same,cell viability,[3]; 1 nM,92.5%
same,cell viability,[3]; 10 nM,93.5%
same,cell viability,[3]; 100 nM,93.7%
same,cell viability,[3]; 1000 nM,90.3%
same,cell viability,[3]; 10000 nM,94.7%
same,cell viability,[4]; 1 nM,99.7%
same,cell viability,[4]; 10 nM,82.4%
same,cell viability,[4]; 100 nM,89.8%
same,cell viability,[4]; 1000 nM,68.2%
same,cell viability,[4]; 10000 nM,93.1%
same,cell viability,[5]; 1 nM,76.4%
same,cell viability,[5]; 10 nM,55.7%
same,cell viability,[5]; 100 nM,61.4%
same,cell viability,[5]; 1000 nM,41.6%
same,cell viability,[5]; 10000 nM,> 100%
same,cell viability,[6]; 1 nM,77.4%
same,cell viability,[6]; 10 nM,69.3%
same,cell viability,[6]; 100 nM,83.4%
same,cell viability,[6]; 1000 nM,63%
same,cell viability,[6]; 10000 nM,> 100%
same,cell viability,[7]; 1 nM,82.1%
same,cell viability,[7]; 10 nM,75.7%
same,cell viability,[7]; 100 nM,92.2%
same,cell viability,[7]; 1000 nM,58.6%
same,cell viability,[7]; 10000 nM,> 100%
same,cell viability,[8]; 1 nM,95.6%
same,cell viability,[8]; 10 nM,95.6%
same,cell viability,[8]; 100 nM,99%
same,cell viability,[8]; 1000 nM,87.3%
same,cell viability,[8]; 10000 nM,99.1%
same,cell viability,[9]; 1 nM,19.5%
same,cell viability,[9]; 10 nM,71.8%
same,cell viability,[9]; 100 nM,81.6%
same,cell viability,[9]; 1000 nM,83.6%
same,cell viability,[9]; 10000 nM,95.1%
NS(=O)(=O)c1ccc(S(=O)(=O)Nc2cccc3c(Cl)c[nH]c23)cc1 [Indisulam],cell viability,[1]; 1 nM,99.9%
same,cell viability,[1]; 10 nM,98.2%
same,cell viability,[1]; 100 nM,> 100%
same,cell viability,[1]; 1000 nM,81.5%
same,cell viability,[1]; 10000 nM,63.2%
same,cell viability,[2]; 1 nM,89.9%
same,cell viability,[2]; 10 nM,91.6%
same,cell viability,[2]; 100 nM,97.5%
same,cell viability,[2]; 1000 nM,79.2%
same,cell viability,[2]; 10000 nM,55.5%
same,cell viability,[3]; 1 nM,90.2%
same,cell viability,[3]; 10 nM,90.8%
same,cell viability,[3]; 100 nM,75.9%
same,cell viability,[3]; 1000 nM,79.2%
same,cell viability,[3]; 10000 nM,44.1%
same,cell viability,[4]; 1 nM,91.4%
same,cell viability,[4]; 10 nM,87.2%
same,cell viability,[4]; 100 nM,86%
same,cell viability,[4]; 1000 nM,28%
same,cell viability,[4]; 10000 nM,9.12%
same,cell viability,[5]; 1 nM,55.5%
same,cell viability,[5]; 10 nM,64.9%
same,cell viability,[5]; 100 nM,97%
same,cell viability,[5]; 1000 nM,81.4%
same,cell viability,[5]; 10000 nM,> 100%
same,cell viability,[6]; 1 nM,93.3%
same,cell viability,[6]; 10 nM,77.1%
same,cell viability,[6]; 100 nM,91.3%
same,cell viability,[6]; 1000 nM,43.1%
same,cell viability,[6]; 10000 nM,21.2%
same,cell viability,[7]; 1 nM,75.2%
same,cell viability,[7]; 10 nM,84.3%
same,cell viability,[7]; 100 nM,85.7%
same,cell viability,[7]; 1000 nM,62.6%
same,cell viability,[7]; 10000 nM,66.6%
same,cell viability,[8]; 1 nM,89.5%
same,cell viability,[8]; 10 nM,95.5%
same,cell viability,[8]; 100 nM,89.6%
same,cell viability,[8]; 1000 nM,96.9%
same,cell viability,[8]; 10000 nM,85.2%
same,cell viability,[9]; 1 nM,84.5%
same,cell viability,[9]; 10 nM,> 100%
same,cell viability,[9]; 100 nM,> 100%
same,cell viability,[9]; 1000 nM,72.9%
same,cell viability,[9]; 10000 nM,34.2%
Cc1nnc(-c2ccc(N3CCC(Oc4ccccc4C(F)(F)F)CC3)nn2)s1 [MF-438],cell viability,[1]; 1 nM,95.4%
same,cell viability,[1]; 10 nM,98.9%
same,cell viability,[1]; 100 nM,99.5%
same,cell viability,[1]; 1000 nM,83%
same,cell viability,[1]; 10000 nM,85.3%
same,cell viability,[2]; 1 nM,86.9%
same,cell viability,[2]; 10 nM,94.5%
same,cell viability,[2]; 100 nM,77.7%
same,cell viability,[2]; 1000 nM,86.9%
same,cell viability,[2]; 10000 nM,94.9%
same,cell viability,[3]; 1 nM,97.4%
same,cell viability,[3]; 10 nM,89.5%
same,cell viability,[3]; 100 nM,98.7%
same,cell viability,[3]; 1000 nM,86.9%
same,cell viability,[3]; 10000 nM,69.8%
same,cell viability,[4]; 1 nM,83.7%
same,cell viability,[4]; 10 nM,98.5%
same,cell viability,[4]; 100 nM,87.9%
same,cell viability,[4]; 1000 nM,85.8%
same,cell viability,[4]; 10000 nM,68.8%
same,cell viability,[5]; 1 nM,80.2%
same,cell viability,[5]; 10 nM,89.2%
same,cell viability,[5]; 100 nM,96.8%
same,cell viability,[5]; 1000 nM,87.5%
same,cell viability,[5]; 10000 nM,> 100%
same,cell viability,[6]; 1 nM,> 100%
same,cell viability,[6]; 10 nM,93.3%
same,cell viability,[6]; 100 nM,99.7%
same,cell viability,[6]; 1000 nM,74.4%
same,cell viability,[6]; 10000 nM,41.2%
same,cell viability,[7]; 1 nM,85%
same,cell viability,[7]; 10 nM,> 100%
same,cell viability,[7]; 100 nM,87.8%
same,cell viability,[7]; 1000 nM,83.5%
same,cell viability,[7]; 10000 nM,92.2%
same,cell viability,[8]; 1 nM,99.4%
same,cell viability,[8]; 10 nM,97.1%
same,cell viability,[8]; 100 nM,> 100%
same,cell viability,[8]; 1000 nM,87.5%
same,cell viability,[8]; 10000 nM,90.5%
same,cell viability,[9]; 1 nM,76.3%
same,cell viability,[9]; 10 nM,77.5%
same,cell viability,[9]; 100 nM,72.9%
same,cell viability,[9]; 1000 nM,61.3%
same,cell viability,[9]; 10000 nM,74.1%
